Test results taken from patent US20210300926A1, “NEW BETA-LACTAMASE INHIBITORS TARGETING GRAM NEGATIVE BACTERIA” (priority 2017, published 2021).
Like-named read-outs stand apart in the source and are kept apart here.

Tests used:
E. coli Top10 = assay: MIC determination by microdilution, E. coli Top10 without β-lactamase (None); type: cell-based
Source text: (§1) Plasmid and strain construction. For antibiotic susceptibility testing, the R-lactamase genes were cloned into the vector pTRC-99k, which is a derivative of pTRC99a (Pharmacia) obtained by replacing the β-lactamase resistance gene by a kanamycin resistance gene (Km, lacl, pTRC promoter, oriVcolEl; D. Mengin-Lecreulx, unpublished). Recombinant plasmids were introduced by electrotransformation into Escherichia coli Top10. For β-lactamase production, fragments of the β-lactamase genes encoding soluble enzymes, i.e. devoid of the signal peptides, were cloned into the vector pET-TEV generating translational fusions with a vector-encoded N-terminal 6×His Tag followed by a TEV cleavage site ([…]) (1).
(§2) MIC determination. MICs of β-lactams were determined by the microdilution method in MH broth according to Clinical and Laboratory Standards Institute (CLSI) recommendations (12). Diazabicyclooctane were used at a fixed concentration of 15 μM (4 μg/ml for avibactam). Clavulanate was tested at 4 μg/ml. IPTG (500 μM) was added to the microdilution plates to induce production of the -lactamase. The precultures were grown in BHI broth containing IPTG (500 μM) and kanamycin (50 μg/ml) for plasmid maintenance. Reported MICs are the medians from five biological repeats obtained in two independent experiments.

[1] = system: E. coli Top10 producing CTX-M15; assay: MIC determination by microdilution, E. coli Top10 producing CTX-M15; type: cell-based, Escherichia coli; settings: for reduction in the MICs of β-lactams (in words): E. coli Top10 producing CTX-M-15, summary of Table 1
Source text: as §1, §2

KPC-2 = target: T1, KPC-2 (Klebsiella pneumoniae, UniProt Q9F663); assay: Kinetic parameters of β-lactamase carbamoylation/de-carbamoylation (nitrocefin), KPC-2; type: biochemical; settings: for Carbamoylation efficacy of β-lactamases by diazabicyclooctanes / De-carbamoylation rate constant k−2 for β-lactamase-diazabicyclooctane adducts: KPC-2, 20° C., nitrocefin 100 μM, MES pH 6.4; for activity against KPC-2 (in words): summary of Tables 1 and 2
T1 construct: fragments of the β-lactamase genes encoding soluble enzymes, i.e. devoid of the signal peptides; 6xHis tag followed by TEV cleavage site ([…]) (N); made in house; host or cells: E. coli BL21 (DE3)
Source text: as §1
(§3) Production and purification of β-lactamases. E. coli BL21 (DE3) harboring recombinant plasmids were grown in brain heart infusion (BHI) broth supplemented with kanamycin (50 μg/ml) at 37° C. under vigorous shaking until the optical density at 600 nm (OD600) reached 0.8. Isopropyl β-D-1-thiogalactopyranoside IPTG (0.5 mM) was added and incubation was continued at 16° C. for 18 h. Bacteria were harvested by centrifugation, re-suspended in 25 mM Tris-HCl (pH 7.5) containing 300 mM NaCl (buffer A) and lysed by sonication. The enzymes were purified from clarified lysates by affinity chromatography (NiNTA agarose, Sigma-Aldrich) and size exclusion chromatography in buffer A (Superdex 200 HL26/60, Amersham Pharmacia Biotech). Protein concentration was determined by the Biorad protein assay using bovine serum albumin as a standard.
(§4) Determination of kinetic parameters. […] Briefly, the initial velocity (vi) was determined by spectrophotometry for various concentrations of β-lactams [S] and a fixed concentration of β-lactamase [E]. The values of vi were plotted as a function of [S]. The kinetic constants Km and kcat were determined by fitting the equation […] to the resulting curve. The molecular extinction coefficient was 14,600 M^−1 cm^−1 at 486 nm for nitrocefin. […] Kinetics constants were deduced from a minimum of 6 progress curves obtained in a minimum of two independent experiments.

CTX-M-15 = target: T2, CTX-M-15 (Escherichia coli, UniProt Q9EXV5); assay: Kinetic parameters of β-lactamase carbamoylation/de-carbamoylation (nitrocefin), CTX-M-15; type: biochemical; settings: for Carbamoylation efficacy of β-lactamases by diazabicyclooctanes / De-carbamoylation rate constant k−2 for β-lactamase-diazabicyclooctane adducts: CTX-M-15, 20° C., nitrocefin 100 μM, MES pH 6.4; for activity against CTX-M-15 (in words): summary of Tables 1 and 2
T2 construct: fragments of the β-lactamase genes encoding soluble enzymes, i.e. devoid of the signal peptides; made in house; host or cells: E. coli BL21 (DE3)
Source text: as §1, §3, §4

TEM-1 = target: T3, TEM-1 (Escherichia coli, UniProt P62593); assay: Kinetic parameters of β-lactamase carbamoylation/de-carbamoylation (nitrocefin), TEM-1; type: biochemical; settings: 20° C., nitrocefin 100 μM, MES pH 6.4
T3 construct: fragments of the β-lactamase genes encoding soluble enzymes, i.e. devoid of the signal peptides; made in house; host or cells: E. coli BL21 (DE3)
Source text: as §1, §3, §4

AmpCEclo = target: T4, AmpCEclo (Enterobacter cloacae, UniProt P05364); type: biochemical; settings: for Carbamoylation efficacy of β-lactamases by diazabicyclooctanes / De-carbamoylation rate constant k−2 for β-lactamase-diazabicyclooctane adducts: AmpCEclo, 20° C., nitrocefin 100 μM, MES pH 6.4
T4 construct: fragments of the β-lactamase genes encoding soluble enzymes, i.e. devoid of the signal peptides; 6xHis tag followed by TEV cleavage site ([…]) (N); made in house; host or cells: E. coli BL21 (DE3)
Procedure: as §3, §4

OXA-48 = target: T5, OXA-48 (Klebsiella pneumoniae, UniProt Q6XEC0); assay: Kinetic parameters of β-lactamase carbamoylation/de-carbamoylation (nitrocefin), OXA-48; type: biochemical; settings: for Carbamoylation efficacy of β-lactamases by diazabicyclooctanes / De-carbamoylation rate constant k−2 for β-lactamase-diazabicyclooctane adducts: OXA-48, 20° C., nitrocefin 100 μM, MES pH 6.4, NA = no inhibition at 100 μM
T5 construct: fragments of the β-lactamase genes encoding soluble enzymes, i.e. devoid of the signal peptides; 6xHis tag followed by TEV cleavage site ([…]) (N); made in house; host or cells: E. coli BL21 (DE3)
Source text: as §1, §3, §4

[2] = system: E. coli Top10 producing AmpCEcl; assay: MIC determination by microdilution, E. coli Top10 producing AmpCEcl; type: cell-based; settings: Escherichia coli, read-out: MIC of β-lactam, inhibitor None
Source text: as §1, §2

[3] = system: E. coli Top10 producing KPC-2; type: cell-based, Escherichia coli; settings: summary of Table 1
[4] = system: E. coli Top10 producing OXA-48; assay: MIC determination by microdilution, E. coli Top10 producing OXA-48; type: cell-based; settings: Escherichia coli, read-out: MIC of β-lactam, inhibitor None
Source text: as §1, §2

T4 sequence (P05364 21-381): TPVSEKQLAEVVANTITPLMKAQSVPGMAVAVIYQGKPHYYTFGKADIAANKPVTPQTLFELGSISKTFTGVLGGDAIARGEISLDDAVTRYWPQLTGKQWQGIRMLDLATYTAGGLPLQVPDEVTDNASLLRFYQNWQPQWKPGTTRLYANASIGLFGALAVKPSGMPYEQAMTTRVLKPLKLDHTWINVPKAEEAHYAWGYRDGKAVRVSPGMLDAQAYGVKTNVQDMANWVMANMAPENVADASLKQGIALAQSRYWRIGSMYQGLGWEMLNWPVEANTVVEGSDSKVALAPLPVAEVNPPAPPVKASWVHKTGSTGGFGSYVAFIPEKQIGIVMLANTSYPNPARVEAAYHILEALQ
T3 sequence (P62593 24-286 limits assumed): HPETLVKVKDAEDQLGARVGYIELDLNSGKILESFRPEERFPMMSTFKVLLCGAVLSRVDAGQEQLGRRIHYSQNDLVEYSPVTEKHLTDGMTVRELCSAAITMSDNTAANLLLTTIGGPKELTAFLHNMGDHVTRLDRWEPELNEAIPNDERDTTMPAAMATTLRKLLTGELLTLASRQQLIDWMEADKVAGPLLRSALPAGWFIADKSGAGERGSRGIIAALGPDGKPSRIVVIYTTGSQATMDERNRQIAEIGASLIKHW
T2 sequence (Q9EXV5 entry or part of it): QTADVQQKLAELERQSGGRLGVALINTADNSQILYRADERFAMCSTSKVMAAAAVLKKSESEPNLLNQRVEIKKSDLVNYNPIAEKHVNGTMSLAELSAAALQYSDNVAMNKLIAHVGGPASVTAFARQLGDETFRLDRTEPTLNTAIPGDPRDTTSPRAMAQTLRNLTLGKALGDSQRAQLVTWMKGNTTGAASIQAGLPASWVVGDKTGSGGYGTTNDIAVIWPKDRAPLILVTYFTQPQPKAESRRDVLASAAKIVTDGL
T1 sequence (Q9F663 25-293 limits assumed): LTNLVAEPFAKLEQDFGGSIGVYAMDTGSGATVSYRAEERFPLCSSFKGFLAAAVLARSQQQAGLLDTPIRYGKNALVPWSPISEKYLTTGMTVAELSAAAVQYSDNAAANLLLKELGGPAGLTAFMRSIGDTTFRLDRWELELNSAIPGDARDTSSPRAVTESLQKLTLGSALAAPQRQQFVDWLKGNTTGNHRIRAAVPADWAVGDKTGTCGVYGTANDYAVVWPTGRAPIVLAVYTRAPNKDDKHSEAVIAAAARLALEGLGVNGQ
T5 sequence (Q6XEC0 23-265 limits assumed): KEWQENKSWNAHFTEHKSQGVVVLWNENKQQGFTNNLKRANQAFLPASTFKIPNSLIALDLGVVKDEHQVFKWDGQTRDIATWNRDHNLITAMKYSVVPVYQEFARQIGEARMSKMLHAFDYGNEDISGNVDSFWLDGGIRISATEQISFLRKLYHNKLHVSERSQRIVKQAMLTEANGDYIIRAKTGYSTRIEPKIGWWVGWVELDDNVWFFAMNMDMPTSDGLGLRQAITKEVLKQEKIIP

| SMILES | Carbamoylation efficacy of β-lactamases by diazabicyclooctanes (KPC-2) | De-carbamoylation rate constant k−2 for β-lactamase-diazabicyclooctane adducts (KPC-2) | Carbamoylation efficacy of β-lactamases by diazabicyclooctanes (CTX-M-15) | De-carbamoylation rate constant k−2 for β-lactamase-diazabicyclooctane adducts (CTX-M-15) | Carbamoylation efficacy of β-lactamases by diazabicyclooctanes (TEM-1) | De-carbamoylation rate constant k−2 for β-lactamase-diazabicyclooctane adducts (TEM-1) | Carbamoylation efficacy of β-lactamases by diazabicyclooctanes (AmpCEclo) | De-carbamoylation rate constant k−2 for β-lactamase-diazabicyclooctane adducts (AmpCEclo) | further results |
| --- | --- | --- | --- | --- | --- | --- | --- | --- | --- |
| CC1(C)S[C@@H]2[C@H](NC(=O)[C@H](N)c3ccc(O)cc3)C(=O)N2[C@H]1C(=O)O [Amoxicillin, reference compound] | – | – | – | – | – | – | – | – | MIC (E. coli Top10; Escherichia coli, TOP10, read-out: MIC of β-lactam, inhibitor None): 4 µg/mL; MIC ([1]; Escherichia coli, read-out: MIC of β-lactam, inhibitor None): 2050 µg/mL |
| NC(=O)[C@@H]1CC[C@@H]2CN1C(=O)N2OS(=O)(=O)O [Avibactam, reference compound] | (2.6 ± 0.1) × 10^4 M^−1 s^−1 | (4.0 ± 0.3) × 10^−3 s−1 | (1.3 ± 0.1) × 10^5 M^−1 s^−1 | (1.1 ± 0.3) × 10^−3 s−1 | (8.8 ± 0.2) × 10^4 M^−1 s^−1 | (1.3 ± 0.1) × 10^−3 s−1 | (1.8 ± 0.1) × 10^4 M^−1 s^−1 | (1.8 ± 0.2) × 10^−3 s−1 | inhibition of β-lactamase AmpClo (in words) (AmpCEclo): poorly inhibited; inhibition of β-lactamase OXA-48 (in words) (OXA-48): poorly inhibited; Carbamoylation efficacy of β-lactamases by diazabicyclooctanes (OXA-48): (9.8 ± 0.6) × 10^2 M^−1 s^−1; De-carbamoylation rate constant k−2 for β-lactamase-diazabicyclooctane adducts (OXA-48): (2.7 ± 0.1 ) × 10^−3 s−1 |
| C[C@H]1[C@H](NC(=O)/C(=N\OC(C)(C)C(=O)O)c2csc(N)n2)C(=O)N1S(=O)(=O)O [Aztreonam] | – | – | – | – | – | – | – | – | MIC (E. coli Top10; Escherichia coli, TOP10; read-out: MIC of β-lactam, inhibitor None): 0.5 µg/mL |
| CO/N=C(\C(=O)N[C@@H]1C(=O)N2C(C(=O)O)=C(COC(C)=O)CS[C@H]12)c1csc(N)n1 [Cefotaxime] | – | – | – | – | – | – | – | – | MIC (E. coli Top10; Escherichia coli; Cefotaxime alone; E. coli Top10, β-lactamase None; read-out: MIC of β-lactam, inhibitor None): 0.12 µg/mL; MIC [2]: 128 µg/mL |
| O=C1N2C[C@@H](CC[C@H]2Cn2cc(CN3CCOCC3)nn2)N1OS(=O)(=O)[O-].[Na+] [Compound 1a.i11] | (1.9 ± 0.2) × 10^2 M^−1 s^−1 | (3.0 ± 0.4) × 10^−3 s−1 | (1.0 ± 0.0) × 10^2 M^−1 s^−1 | (4.6 ± 1.1) × 10^−4 s−1 | (1.2 ± 0.0) × 10^3 M^−1 s^−1 | (2.9 ± 0.3) × 10^−3 s−1 | (3.1 ± 0.3) × 10^1 M^−1 s^−1 | (8.9 ± 2.1) × 10^−4 s−1 | activity against KPC-2 (in words) (KPC-2): displayed activity; activity against CTX-M-15 (in words) (CTX-M-15): displayed activity |
| COCc1cn(C[C@@H]2CC[C@@H]3CN2C(=O)N3OS(=O)(=O)[O-])nn1.[Na+] [Compound 1a.i13] | (1.8 ± 0.2) × 10^1 M^−1 s^−1 | (1.2 ± 0.1) × 10^−3 s−1 | (1.2 ± 0.4) × 10^2 M^−1 s^−1 | (1.3 ± 1.3) × 10^−3 s−1 | (8.3 ± 0.5) × 10^2 M^−1 s^−1 | (1.6 ± 0.5) × 10^−3 s−1 | (1.5 ± 0.5) × 10^1 M^−1 s^−1 | (1.3 ± 0.6) × 10^−3 s−1 | reduction in the MICs of β-lactams (in words) [3]: Minor reduction; reduction in the MICs of β-lactams (in words) [1]: Minor reduction |
| O=C(O)CCc1cn(C[C@@H]2CC[C@@H]3CN2C(=O)N3OS(=O)(=O)[O-])nn1.[Na+] [Compound 1a.i14] | (7.0 ± 0.8) × 10^1 M^−1 s^−1 | (7.9 ± 1.7) × 10^−4 s−1 | (1.1 ± 0.1) × 10^2 M^−1 s^−1 | (3.9 ± 0.8) × 10^−4 s−1 | (7.2 ± 0.6) × 10^2 M^−1 s^−1 | (8.2 ± 8.9) × 10^−4 s−1 | (9.9 ± 0.9) × 10^1 M^−1 s^−1 | (1.6 ± 0.2) × 10^−3 s−1 | reduction in the MICs of β-lactams (in words) [3]: Minor reduction; reduction in the MICs of β-lactams (in words) [1]: Minor reduction |
| O=C1N2C[C@@H](CC[C@H]2Cn2cc(-c3ccccc3)nn2)N1OS(=O)(=O)[O-].[Na+] [Compound 1a.i16] | (9.3 ± 0.4) × 10^2 M^−1 s^−1 | (8.8 ± 1.2) × 10^−4 s−1 | (6.9 ± 0.2) × 10^3 M^−1 s^−1 | (3.3 ± 0.5) × 10^−4 s−1 | (4.7 ± 0.1) × 10^3 M^−1 s^−1 | (4.2 ± 0.6) × 10^−4 s−1 | (2.0 ± 0.0) × 10^2 M^−1 s^−1 | (2.3 ± 0.1) × 10^−3 s−1 | activity against KPC-2 (in words) (KPC-2): displayed activity; activity against CTX-M-15 (in words) (CTX-M-15): displayed activity; Carbamoylation efficacy of β-lactamases by diazabicyclooctanes (OXA-48): (1.1 ± 0.3) × 10^2 M^−1 s^−1; De-carbamoylation rate constant k−2 for β-lactamase-diazabicyclooctane adducts (OXA-48): (1.7 ± 0.1) × 10^−3 s−1 |
| O=C1N2C[C@@H](CC[C@H]2Cn2cc(-c3cccnc3)nn2)N1OS(=O)(=O)O [Compound 1a.i] | (5.5 ± 0.1) × 10^2 M^−1 s^−1 | (3.0 ± 0.1) × 10^−3 s−1 | (1.7 ± 0.4) × 10^3 M^−1 s^−1 | (6.4 ± 0.8) × 10^−4 s−1 | (1.4 ± 0.1) × 10^3 M^−1 s^−1 | (2.1 ± 0.2) × 10^−3 s−1 | (8.5 ± 0.7) × 10^1 M^−1 s^−1 | (2.1 ± 0.5) × 10^−3 s−1 | activity against KPC-2 (in words) (KPC-2): displayed activity; activity against CTX-M-15 (in words) (CTX-M-15): displayed activity |
| C[Si](C)(C)c1cn(C[C@@H]2CC[C@@H]3CN2C(=O)N3OS(=O)(=O)O)nn1 [Compound 2a.i] | (9.7 ± 0.8) × 10^1 M^−1 s^−1 | (2.9 ± 0.2) × 10^−3 s−1 | (4.0 ± 0.1) × 10^2 M^−1 s^−1 | (3.9 ± 0.9) × 10^−4 s−1 | (3.7 ± 0.5) × 10^2 M^−1 s^−1 | (2.9 ± 0.9) × 10^−3 s−1 | (2.4 ± 0.1) × 10^1 M^−1 s^−1 | (1.3 ± 0.9) × 10^−3 s−1 | reduction in the MICs of β-lactams (in words) [3]: Minor reduction; reduction in the MICs of β-lactams (in words) [1]: Minor reduction |
| C[C@@H](O)[C@H]1C(=O)N2C(C(=O)O)=C(S[C@@H]3CN[C@H](C(=O)Nc4cccc(C(=O)O)c4)C3)[C@H](C)[C@H]12 [Ertapenem] | – | – | – | – | – | – | – | – | MIC (E. coli Top10; Escherichia coli; Ertapenem alone; E. coli Top10, β-lactamase None; read-out: MIC of β-lactam, inhibitor None): < 0.03 µg/mL; MIC [4]: 16 µg/mL |
